Measured values taken from US20250352395A1, “ANTIMICROBIAL HEMOSTATIC DEVICES AND METHODS OF USE AND MAKING” (TELEFLEX LIFE SCIENCES II LLC, priority 2024, published 2025).
Counter-ions that a name gives are not always drawn.

Experiments:
whole sheep blood = assay: Tilt Tube Clot Test; format: biochemical; details: Example 3
Procedure: Beakers containing the mixtures were placed on a magnetic stirrer with a stirring rod placed therein. The stir plate was set to 300 RPM. Once the mixture appeared uniform, 130 μL of the mixture was pipetted into each of the appropriately labeled tubes. 20 samples per concentration were used. The samples were tested in a Tilt Tube Clot Test method described below. A water bath was prepared to 37±1° C., and a test tube holder was placed therein. One mL of whole sheep blood at 37° C. was pipetted into each test tube. 150 μL of CaCl2 at 37° C. was then pipetted into a tube and a timer was then started (time “0”). Tubes were capped and gently shaken twice to ensure that the CaCl2 was completely mixed with the blood, and then placed in the water bath. Tubes were tilted by 90° at 15 second intervals, beginning when the timer reads 45 seconds. The time to clot was determined by visual inspection and the clot time was recorded. A clot is defined as a solid mass that may or may not adhere to bottom of test tube. The average clot time for control blood and hemostatic agents was then calculated. […] Samples from Tests 11-13 and Test 10 from Example 2 were then further separated into 0.5″ by 0.5″ squares and added to test tubes. A Tilt Tube Clot Test, as described in Example 1, was performed.

[1] = Appearance of coated gauze after drying at 80° C. for 24 hours; format: physicochemical; details: exposure to 80° C. for 24 hours
Procedure: To coat the gauze, 20 mL of the coating mixture was poured into a flatbottom glass dish and then the gauze dipped into the mixture. The gauze was then lifted and allowed to drip. The coated gauze was placed on the wire rack and dried at 80° C. for 24 hrs. After drying was complete, samples were taken from the oven and remeasured for weight and moisture.
After coating, there were noticeable white clumps on the gauze.

[2] = Observation of salt dissolution in DI water during coating; format: physicochemical; details: Example 3 coating mixture, 0.39 g in 100 mL DI water

SMILES | clot time (whole sheep blood; tested concentrations for CHA (300 and 50 μg/cm^2 targeted)) [s] | appearance after drying [1] | clot time (whole sheep blood; estimated 300 μg/cm^2, at some individual data points) | dissolution in DI water [2]
CC(=O)O.CC(=O)O.NC(=N\CCCCCC/N=C(N)/N=C(\N)Nc1ccc(Cl)cc1)/N=C(\N)Nc1ccc(Cl)cc1 [CHA, Chlorhexidine diacetate] | ≥ 150 | discolored, turning a yellow/orange |  | 
[H]/N=C(\N/C(=N/[H])NCCCCCCNC(=N)NC(=N)Nc1ccc(Cl)cc1)Nc1ccc(Cl)cc1 [CHD, Chlorhexidine dihydrochloride] |  |  | less than 150 seconds | did not dissolve
